The results in this text go back to PMC5940854, “Nitrothiophene carboxamides, a novel narrow spectrum antibacterial series: Mechanism of action and Efficacy” (Scientific Reports, 2018).

Values after ≈ are worked out from the molar mass of the structure shown. Residues, ends and D or L forms follow the SMILES beside them. *: point of attachment. βNA = c1ccc2cc(N*)ccc2c1

For assay [1], the target named is T1, AcrB efflux pump in E. coli BW25113 (Escherichia coli, UniProt P31224).
T1 construct: endogenous in cells; host or cells: E. coli BW25113 (wild type)
Nature of the assay: Nile red efflux assay (whole-cell competition). Format: cell-based. As to the method: The Nile red assay is adopted from Bohnert et al.[18]. An overnight culture of E. coli strain BW25113 is harvested and is resuspended in 20 mM potassium phosphate buffer (pH 7.0) containing 1 mM MgCl2 (PPB). The cells are adjusted to an A660 of 1.0 in PPB and aliquoted into glass tubes (2 ml each). Carbonylcyanide-m-chlorophenylhydrazone (CCCP; a protonophore that uncouples the electron transport chain and thus inhibits AcrB mediated efflux) is added to a final concentration of 10 µM (5 mM stock solution in 50% DMSO) and incubated for 15 minutes before adding the potential competitor at desired concentrations. Nile red is then added (stock solution of 5 mM in 10% dimethyl formamide-90% ethanol [vol/vol]) to a final concentration of 5 µM. The cell suspension is incubated at room temperature on a shaker for 3 hours. The cells are harvested and resuspended in 2 ml PPB in the presence of the competitor. The cell suspension is aliquoted in a fluorimeter cuvette, to which, 100 µl of 1 M Glucose is added to activate the electron transport chain. The rate of efflux is measured by Tefflux50, it is the time taken for 50% of Nile red to be effluxed out in presence of the compounds. The fluorescence is measured (Excitation 552 nm, Emission 636 nm) for 200 seconds.

The next assay addresses T2, AcrB (Escherichia coli, UniProt P31224).
T2 construct: Full length acrB gene was amplified from E. coli; BW25113; His-tag (C); made in house; host or cells: E. coli C43(DE3), plasmid pET21a
Description: Thermal shift assay with CPM dye. Particulars: AcrB vs apo-protein; > 1°C implies binding. Also noted: species or system E. coli. The method, then: AcrB overexpression protocol is adopted from Du. et al.[31]. Full length acrB gene was amplified from E. coli. BW25113 using Forward Primer 5′-[…]-3′ Reverse Primer 5′-[…]-3′ and cloned into the plasmid pET21a. The resultant plasmid that would express AcrB with a C-terminal His-tag is transformed into E. coli strain C43(DE3). The cells are induced on reaching A600 = 0.6 and transferred to 18 °C. The culture is harvested by centrifugation and re-suspended in Buffer A (100 mM Sodium Phosphate, 100 mM NaCl, 10 mM Imidazole, pH = 7.4, 100 µg/ml protease inhibitor cocktail from Roche and 5 U/ml DNase I and 5 mg/ml lysozyme). The cells are lysed at 15000 psi using Emulsiflex and centrifuged at 8000 g for removing cell debris. The membrane is isolated by centrifuging the resultant supernatant at 125000 g (see Coomassie stained SDS-PAGE of the purified protein Figure S9). Membrane solubilisation is done using Buffer A and 1.5% DDM (n-Dodecyl-β-D-Maltoside). Ni-NTA chromatography is used to purify the His-tagged protein and eluted in Buffer A with 300 mM Imidazole and 1.5% DDM.
The assay is performed according to protocols established elsewhere. CPM (N- [4-(7-diethylamino-4-methyl-3-coumarinyl) phenyl] maleimide) is a thiol specific fluorochrome (Excitation 387 nm, Emission 463 nm) and is non-fluorescent in an unbound state. The proteins, on thermal unfolding exposes cysteines allowing the CPM to bind and fluoresce. […]. The thermal denaturation is performed in a fluorimeter that is heated from 25 to 90 °C at a ramp rate of 1 °C/min. The Tm is calculated by analysing the melting profiles using Boltzmann Sigmoid function (GraphPad Prism) and ∆Tm is calculated by measuring the difference between the Tm of inhibitor bound protein and the apo-protein.

The test system of a further assay is E. coli BW25113. Description: Neutropenic thigh infection, E. coli BW25113. It is filed as in vivo, BALB/c mice. Particulars: Study TI-2014-008, BW25113, 100mg/kg per oral.
Assay [2] relates to E. coli ∆acrB JW0451-2. Nature of the assay: Neutropenic thigh infection, E. coli ∆acrB. Format: in vivo, BALB/c mice.
Assay [3] relates to E. coli macB knockout strain. Nature of the assay: MIC, efflux pump knockout macB. Format: cell-based. The following applies: Escherichia coli, read-out: MIC macB. The method, then: (§1) The inoculum used for all the experiments is derived from a single seed lot that is maintained as glycerol stocks at −80 °C and are sub cultured on LB plate for isolated colonies. Single colony of each strain is grown in M9 medium. All test compound stocks and dilutions are prepared in DMSO. Serial two-fold dilutions of compounds are prepared separately, with the concentrations ranging from 2 mg/mL to 0.015 mg/mL. To 150 µl (3–7 × 10^5 CFU/ml) of bacterial culture in 96 well microtitre plates, 3 μL compound from each of the dilutions is added to respective wells to obtain final concentrations ranging from 40 µg/mL to 0.3 µg/mL of the test compounds. Media control, culture control and appropriate reference drug controls are included. […] Growth is monitored by checking absorbance at 600 nm (A600). […] The samples from MIC and above concentrations are plated for MBC (Minimum Bactericidal Concentration). The samples are diluted 1:10 and plated on LB agar plates. […] The killing kinetics is determined by enumerating survivors at various time points following compound exposure. E. coli cells (~10^7 CFU/ml; A600 of 0.1) are treated with various concentrations (40 µg/mL to 0.3 µg/mL) of compounds in a 96-well microtitre plate. […] Data is expressed as the log10 CFU for each drug treatment.

For assay [4], the system named is E. coli acrF knockout strain. Nature of the assay: MIC, efflux pump knockout acrF. It is filed as cell-based. Particulars: Escherichia coli, read-out: MIC acrF. The method, then: as §1
Assay [5] deals with E. coli mdtG knockout strain. Nature of the assay: MIC, efflux pump knockout mdtG. The following applies: Escherichia coli, read-out: MIC mdtG. Format: cell-based. As to the method: as §1
The subject of assay [6] is E. coli mdtB knockout strain. Nature of the assay: MIC, efflux pump knockout mdtB. It is filed as cell-based. Particulars: Escherichia coli, read-out: MIC mdtB. The method, then:
as §1

The subject of assay [7] is E. coli emrE knockout strain. Description: MIC, efflux pump knockout emrE. Format: cell-based. The following applies: Escherichia coli, read-out: MIC emrE. The method, then: as §1
The subject of assay [8] is E. coli emrY knockout strain. Nature of the assay: MIC, efflux pump knockout emrY. Format: cell-based. Particulars: Escherichia coli, read-out: MIC emrY. As to the method:
as §1

The test system of assay [9] is E. coli mdfA knockout strain. Description: MIC, efflux pump knockout mdfA. The following applies: Escherichia coli, read-out: MIC mdfA. It is filed as cell-based. As to the method: as §1
Assay [10] concerns E. coli acrD knockout strain. Description: MIC, efflux pump knockout acrD. It is filed as cell-based. The following applies: Escherichia coli, read-out: MIC acrD. The method, then:
as §1

Assay [11] relates to E. coli mdtL knockout strain. Nature of the assay: MIC, efflux pump knockout mdtL. It is filed as cell-based. The following applies: Escherichia coli, read-out: MIC mdtL. As to the method: as §1
The test system of assay [12] is E. coli yciM knockout strain. Nature of the assay: MIC, efflux pump knockout yciM. It is filed as cell-based. Particulars: Escherichia coli, read-out: MIC yciM. The method, then: as §1
The test system of assay [13] is E. coli ∆acrB JW0451-2. Nature of the assay: MIC, E. coli ∆acrB. Format: cell-based. Particulars: Escherichia coli, read-out: MIC acrB. The method, then:
as §1, with “plate. At various time intervals (0 to 8 h), 30 μl volumes of treated cultures are serially diluted and plated on LB agar plates.” for “plate.”

The test system of assay [14] is E. coli hsrA knockout strain. Description: MIC, efflux pump knockout hsrA. Format: cell-based. The following applies: Escherichia coli, read-out: MIC hsrA. As to the method:
as §1

The next assay deals with E. coli ∆tolC JW5503-1. Nature of the assay: MIC, E. coli ∆tolC. Format: cell-based. The following applies: Escherichia coli, read-out: MIC tolC. The method, then: as §1, with “plate. At various time intervals (0 to 8 h), 30 μl volumes of treated cultures are serially diluted and plated on LB agar plates.” for “plate.”
The test system of assay [15] is E. coli mdtK knockout strain. Description: MIC, efflux pump knockout mdtK. It is filed as cell-based. The following applies: Escherichia coli, read-out: MIC mdtK. As to the method: as §1
Assay [16] concerns E. coli acrZ knockout strain. Description: MIC, efflux pump knockout acrZ. Particulars: Escherichia coli, read-out: MIC acrZ. It is filed as cell-based. As to the method: as §1
Assay [17] deals with E. coli bcr knockout strain. Nature of the assay: MIC, efflux pump knockout bcr. It is filed as cell-based. Particulars: Escherichia coli, read-out: MIC bcr. The method, then: as §1
Assay [18] concerns wild-type E. coli CGSC#7636 (BW25113). Nature of the assay: MIC, wild-type E. coli. Particulars: Escherichia coli, BW25113, E. coli WT BW25113; read-out: MIC WT. It is filed as cell-based. As to the method:
as §1, with “plate. At various time intervals (0 to 8 h), 30 μl volumes of treated cultures are serially diluted and plated on LB agar plates.” for “plate.”

Assay [19] has as its system E. coli emrB knockout strain. Nature of the assay: MIC, efflux pump knockout emrB. It is filed as cell-based. The following applies: Escherichia coli, read-out: MIC emrB. As to the method: as §1

T1 sequence (P0AE06 25-397): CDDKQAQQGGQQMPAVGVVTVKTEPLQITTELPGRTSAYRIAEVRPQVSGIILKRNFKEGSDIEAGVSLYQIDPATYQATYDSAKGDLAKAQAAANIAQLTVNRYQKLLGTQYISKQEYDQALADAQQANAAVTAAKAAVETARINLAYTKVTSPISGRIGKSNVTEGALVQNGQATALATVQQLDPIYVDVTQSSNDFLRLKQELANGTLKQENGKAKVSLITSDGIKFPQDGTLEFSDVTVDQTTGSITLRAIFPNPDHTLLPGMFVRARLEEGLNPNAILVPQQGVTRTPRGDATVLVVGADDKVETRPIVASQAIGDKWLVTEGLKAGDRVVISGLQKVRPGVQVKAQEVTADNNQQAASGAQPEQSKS
T1 sequence (P31224 whole entry): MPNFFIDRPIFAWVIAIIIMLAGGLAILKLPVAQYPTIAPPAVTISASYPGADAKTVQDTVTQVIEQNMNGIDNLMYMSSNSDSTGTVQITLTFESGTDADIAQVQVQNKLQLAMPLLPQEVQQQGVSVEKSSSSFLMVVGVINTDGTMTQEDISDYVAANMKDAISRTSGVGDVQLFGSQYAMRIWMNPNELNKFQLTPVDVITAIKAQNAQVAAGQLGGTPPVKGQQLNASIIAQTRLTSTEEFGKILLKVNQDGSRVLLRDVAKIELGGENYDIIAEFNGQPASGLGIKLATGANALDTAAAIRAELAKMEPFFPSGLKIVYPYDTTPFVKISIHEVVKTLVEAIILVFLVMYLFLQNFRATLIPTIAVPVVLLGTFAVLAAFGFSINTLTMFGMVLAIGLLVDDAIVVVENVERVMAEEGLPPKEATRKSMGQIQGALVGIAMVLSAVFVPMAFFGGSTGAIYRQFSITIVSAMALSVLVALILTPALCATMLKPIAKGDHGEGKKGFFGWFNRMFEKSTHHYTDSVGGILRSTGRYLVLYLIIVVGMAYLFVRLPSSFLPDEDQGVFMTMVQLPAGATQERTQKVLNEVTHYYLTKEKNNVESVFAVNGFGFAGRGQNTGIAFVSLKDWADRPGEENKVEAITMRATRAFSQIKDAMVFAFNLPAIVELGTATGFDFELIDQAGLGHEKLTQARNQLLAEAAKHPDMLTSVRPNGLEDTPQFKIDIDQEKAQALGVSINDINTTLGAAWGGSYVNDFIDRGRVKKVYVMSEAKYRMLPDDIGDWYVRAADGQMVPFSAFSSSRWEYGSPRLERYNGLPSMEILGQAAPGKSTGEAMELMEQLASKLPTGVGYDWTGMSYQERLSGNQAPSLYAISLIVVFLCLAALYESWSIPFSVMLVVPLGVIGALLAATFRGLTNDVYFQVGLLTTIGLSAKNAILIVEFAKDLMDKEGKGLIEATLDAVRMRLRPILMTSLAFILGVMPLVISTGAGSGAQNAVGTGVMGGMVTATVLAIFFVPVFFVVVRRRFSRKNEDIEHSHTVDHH
T1 sequence (P02930 23-493, further chain): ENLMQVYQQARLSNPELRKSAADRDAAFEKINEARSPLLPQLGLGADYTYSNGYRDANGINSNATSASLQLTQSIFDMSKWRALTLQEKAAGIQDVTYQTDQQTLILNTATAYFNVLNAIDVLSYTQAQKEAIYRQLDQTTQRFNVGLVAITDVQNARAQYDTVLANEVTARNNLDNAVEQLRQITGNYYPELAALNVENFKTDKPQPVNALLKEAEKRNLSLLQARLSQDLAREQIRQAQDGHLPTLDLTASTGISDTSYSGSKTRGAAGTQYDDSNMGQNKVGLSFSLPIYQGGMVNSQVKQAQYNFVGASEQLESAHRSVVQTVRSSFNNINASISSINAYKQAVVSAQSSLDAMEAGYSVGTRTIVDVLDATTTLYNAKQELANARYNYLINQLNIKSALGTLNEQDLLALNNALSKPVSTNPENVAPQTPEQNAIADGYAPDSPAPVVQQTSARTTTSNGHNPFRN
T2 sequence (P31224 whole entry): as the sequence (P31224 whole entry) above

For `NC(N)=NCCC[C@H](NC(=O)[C@@H](N)Cc1ccccc1)C(=O)Nc1ccc2ccccc2c1` [PAβN, Phenylalanine-Arginine Beta-Naphthylamide, reference compound] (H-Phe-Arg-βNA), the Tefflux50 in [1] (1µM compound, time for 50% of Nile red to be effluxed, read for 200 seconds) came out at 200 s; in assay [1] (9µM compound), 200 s; in assay [1] (27µM compound), 200 s; in assay [1] (81µM compound) it was 200 s; in [1] (100µM compound), 200 s; in assay [1] (200µM compound), 200 s. The same compound yielded a Tefflux50 in assay [1] (400µM compound) of 200 s. For the same compound, the “∆Tm” value at AcrB came to 3.84 °C.
For `O=C(O)c1cn(C2CC2)c2cc(N3CCNCC3)c(F)cc2c1=O` [ciprofloxacin, reference compound], the “Log10CFU Mean Diff. vs. Untreated Controls” value with E. coli BW25113 was found to be 3.212 Log10CFU; in the assay on E. coli ∆acrB JW0451-2 [2] (Study TI-2014-007, ∆acrB JW0451-2, 100mg/kg per oral, 6 hours post treatment), 3.477 Log10CFU; in the assay with E. coli ∆acrB JW0451-2 [2] (Study TI-2014-008, ∆acrB JW0451-2, 100mg/kg per oral) it was 3.098 Log10CFU.
What is called MIC is the smallest concentration in the dilution series that meets the test's criterion for growth inhibition. Turning to `CN(C)[C@@H]1C(O)=C(C(N)=O)C(=O)[C@@]2(O)C(O)=C3C(=O)c4c(O)cccc4[C@@](C)(O)[C@H]3C[C@@H]12` [tetracycline, reference compound], the MIC in [3], in [4], in assay [5], in [6], in assay [7] and in assay [8] was 1.2 µg/mL (≈ 2.7 µM) each time. For the same compound, the minimal inhibitory concentration (MIC) worked out at 1.2 µg/mL (≈ 2.7 µM) in assay [9]; 1.2 µg/mL (≈ 2.7 µM) in assay [10]; 1.2 µg/mL (≈ 2.7 µM) in assay [11]; 1.2 µg/mL (≈ 2.7 µM) in assay [12]; 0.3 µg/mL (≈ 0.675 µM) in the assay with E. coli ∆acrB JW0451-2 [13]; 1.2 µg/mL (≈ 2.7 µM) in assay [14]. Also, the MIC in the assay with E. coli ∆tolC JW5503-1 was determined as 0.3 µg/mL (≈ 0.675 µM); in assay [15] it was 1.2 µg/mL (≈ 2.7 µM); in assay [16], 1.2 µg/mL (≈ 2.7 µM); in [17] it was 1.2 µg/mL (≈ 2.7 µM); in assay [18] it was 1.2 µg/mL (≈ 2.7 µM); in assay [19], 1.2 µg/mL (≈ 2.7 µM).
